Data published in publication PMC5640156 (Journal of the American Chemical Society, 2017).
Positions count from the first letter of the chain named.

Assays:
P450cam = target: T1, P450cam (Pseudomonas putida, UniProt P00183, R187A); experiment: isothermal titration calorimetry; format: binding
T1 sequence (P00183 2-415 R187A): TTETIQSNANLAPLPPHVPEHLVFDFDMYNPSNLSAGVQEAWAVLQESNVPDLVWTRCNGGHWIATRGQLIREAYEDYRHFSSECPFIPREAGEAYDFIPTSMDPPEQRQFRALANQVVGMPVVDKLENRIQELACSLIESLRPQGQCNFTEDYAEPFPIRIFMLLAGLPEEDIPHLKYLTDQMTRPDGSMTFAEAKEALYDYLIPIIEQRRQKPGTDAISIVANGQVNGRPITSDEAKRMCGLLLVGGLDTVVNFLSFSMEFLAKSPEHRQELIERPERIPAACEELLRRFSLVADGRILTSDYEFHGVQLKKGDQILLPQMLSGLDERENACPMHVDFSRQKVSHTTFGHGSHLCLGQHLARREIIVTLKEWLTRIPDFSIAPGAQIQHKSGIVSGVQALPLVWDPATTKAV

[1] = target: T2, R186A mutant of cytochrome P450cam (Pseudomonas putida, UniProt P00183 2-415, R186A); experiment: ITC
T2 sequence: T1 sequence (P00183 2-415 R187A) with R186A

Question: How did the Kd (P450cam) turn out when `CC1(C)[C@@H]2CC[C@@]1(C)C(=O)C2` [D-camphor] was run?
Answer: Its Kd is 32.2 ± 4 µM.

B1: putidaredoxin (natural protein, Pseudomonas putida)
chain: MSKVVYVSHDGTRRELDVADGVSLMQAAVSNGIYDIVGDCGGSASCATCHVYVNEAFTDKVPAANEREIGMLECVTAELKPNSRLCCQIIMTPELDGIVVDVPDRQW
Question: For B1, which Kd [1] is on record?
Answer: The Kd was 22.1 µM.
